Several values for one entry are separate records, joined by “and”; a condition that tells them apart may be missing. Identical values can stand only once.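 Exposure lasted 48 hours, with cells grown in 96-well plates and compounds tested at five concentrations. Abbreviation: GI50, concentration required for 50% inhibition of growth. TGI: concentration producing complete growth inhibition.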
Columns and labels:
Assay in all cases: NCI tumour cell line growth inhibition, 48 h
MOLT-4 leukemia = tested on: MOLT-4 leukemia
786-0 renal = tested on: 786-0 renal
ACHN renal = tested on: ACHN renal
K-562 leukemia = tested on: K-562 leukemia
A498 renal = tested on: A498 renal
CAKI-1 renal = tested on: CAKI-1 renal
KM12 colon = tested on: KM12 colon
T-47D breast = tested on: T-47D breast
MDA-MB-231 breast = tested on: MDA-MB-231 breast
HS 578T breast = tested on: HS 578T breast

Cc1ccc(C)c2c1CCc1cc3ccccc3nc1-2
TGI (MOLT-4 leukemia): > 100 µM
TGI (786-0 renal): > 100 µM
TGI (ACHN renal): > 100 µM
TGI (K-562 leukemia): > 100 µM
TGI (A498 renal): > 100 µM
TGI (CAKI-1 renal): > 100 µM
TGI (KM12 colon): > 100 µM

Cc1cccc(O)c(=O)c1
TGI (MOLT-4 leukemia): > 100 µM
TGI (786-0 renal): > 100 µM
TGI (ACHN renal): > 100 µM
TGI (A498 renal): > 100 µM
TGI (CAKI-1 renal): > 100 µM
TGI (KM12 colon): > 100 µM

O=C(Nc1ccccc1C(=O)O)C(=O)C(C(=O)c1ccccc1-c1ccccc1)C1OC(=O)c2ccccc21 (stereo not given)
TGI (MOLT-4 leukemia): > 100 µM
TGI (786-0 renal): 33.3 µM
TGI (ACHN renal): 92.3 µM
TGI (K-562 leukemia): > 100 µM
TGI (A498 renal): 35.3 µM
TGI (CAKI-1 renal): > 100 µM
TGI (KM12 colon): 33.6 µM

O=C1C2=C(c3ccccc31)C(c1ccc(F)cc1)N1C(=O)CCSC1=N2 (stereo not given)
TGI (MOLT-4 leukemia): > 100 µM
TGI (786-0 renal): > 100 µM
TGI (ACHN renal): > 100 µM
TGI (K-562 leukemia): > 100 µM
TGI (A498 renal): > 100 µM
TGI (CAKI-1 renal): > 100 µM
TGI (KM12 colon): > 100 µM

N=C1C(c2nc(-c3ccc(Br)cc3)cs2)=C(O)CN1CC1CCCO1 (stereo not given)
GI50 (MOLT-4 leukemia): > 100 µM
TGI (MOLT-4 leukemia): > 100 µM
GI50 (786-0 renal): > 100 µM
TGI (786-0 renal): > 100 µM
GI50 (ACHN renal): > 100 µM
TGI (ACHN renal): > 100 µM
GI50 (T-47D breast): > 100 µM
TGI (T-47D breast): > 100 µM
GI50 (K-562 leukemia): > 100 µM
TGI (K-562 leukemia): > 100 µM
GI50 (MDA-MB-231 breast): > 100 µM
TGI (MDA-MB-231 breast): > 100 µM
GI50 (A498 renal): > 100 µM
TGI (A498 renal): > 100 µM
GI50 (CAKI-1 renal): > 100 µM
TGI (CAKI-1 renal): > 100 µM
GI50 (KM12 colon): > 100 µM
TGI (KM12 colon): > 100 µM

COC(=O)C12C3C4C1C1C2C3C41C(=O)N(C(C)C)C(C)C (stereo not given)
TGI (MOLT-4 leukemia): > 100 µM
TGI (786-0 renal): > 100 µM
TGI (ACHN renal): > 100 µM
TGI (K-562 leukemia): > 100 µM
TGI (A498 renal): > 100 µM
TGI (KM12 colon): > 100 µM

Cc1c(N)nc(C(CC(N)=O)NCC(N)C(N)=O)nc1C(=O)NC(C(=O)NC(C)C(O)C(C)C(=O)NC(C(=O)NCCc1nc(-c2nc(C(=O)NCCCNCCCCN)cs2)cs1)C(C)O)C(OC1OC(CO)C(O)C(O)C1OC1OC(CO)C(O)C(OC(N)=O)C1O)c1cnc[nH]1 (stereo not given)
GI50 (MOLT-4 leukemia): 4.22 µg/mL and 2.23 µg/mL
GI50 (786-0 renal): 0.895 µg/mL and 0.562 µg/mL
TGI (786-0 renal): 19.4 µg/mL and > 10 µM
GI50 (ACHN renal): 0.182 µg/mL and 0.0425 µg/mL
GI50 (T-47D breast): 16.5 µg/mL
GI50 (K-562 leukemia): 29.2 µg/mL
TGI (K-562 leukemia): > 10 µM
GI50 (HS 578T breast): 5.69 µg/mL and 0.24 µg/mL
TGI (HS 578T breast): 38.4 µg/mL
GI50 (A498 renal): 18.5 µg/mL
TGI (A498 renal): > 10 µM
GI50 (CAKI-1 renal): 0.845 µg/mL and 2.94 µg/mL
TGI (CAKI-1 renal): 2.38 µM
GI50 (KM12 colon): 40 µg/mL
TGI (KM12 colon): > 10 µM

C[C@H]1CCC/C=C/[C@@H]2C[C@H](O)C[C@H]2[C@H](O)[C@@H](SC2OC(CO)C(O)C(O)C2O)CC(=O)O1 (stereo not given in full)
GI50 (MOLT-4 leukemia): > 100 µM
TGI (MOLT-4 leukemia): > 100 µM
GI50 (786-0 renal): 25.1 µM
TGI (786-0 renal): 59.9 µM
GI50 (ACHN renal): > 100 µM
TGI (ACHN renal): > 100 µM
GI50 (T-47D breast): > 100 µM
TGI (T-47D breast): > 100 µM
GI50 (K-562 leukemia): > 100 µM
TGI (K-562 leukemia): > 100 µM
GI50 (MDA-MB-231 breast): 26.9 µM
TGI (MDA-MB-231 breast): 91 µM
GI50 (A498 renal): 20.7 µM
TGI (A498 renal): 63.8 µM
GI50 (CAKI-1 renal): > 100 µM
TGI (CAKI-1 renal): > 100 µM
GI50 (KM12 colon): 30.3 µM
TGI (KM12 colon): 68 µM

O=C(O)c1oc2cccc3c2c1CCC3
TGI (MOLT-4 leukemia): > 100 µM
TGI (786-0 renal): > 100 µM
TGI (ACHN renal): > 100 µM
TGI (K-562 leukemia): > 100 µM
TGI (A498 renal): > 100 µM
TGI (KM12 colon): > 100 µM

CC(=O)OCC(OC(C)=O)C(OC(C)=O)C(OC(C)=O)C(=O)CNn1c(-c2ccccc2Cl)nc2ccc(Br)cc2c1=O (stereo not given)
TGI (MOLT-4 leukemia): > 100 µM
TGI (786-0 renal): > 100 µM
TGI (ACHN renal): > 100 µM
TGI (K-562 leukemia): > 100 µM
TGI (A498 renal): > 100 µM
TGI (CAKI-1 renal): > 100 µM
TGI (KM12 colon): > 100 µM

Cc1cc(Cl)ccc1NC(=O)CCCC(=O)C(C(=O)c1ccccc1)c1ccccc1 (stereo not given)
TGI (MOLT-4 leukemia): > 100 µM
TGI (786-0 renal): > 100 µM
TGI (ACHN renal): > 100 µM
TGI (K-562 leukemia): > 100 µM
TGI (A498 renal): > 100 µM
TGI (CAKI-1 renal): > 100 µM
TGI (KM12 colon): > 100 µM

CCCCN(CCCC)C(=O)C(=O)CC(=O)/C=C/c1ccccc1
TGI (MOLT-4 leukemia): > 100 µM
TGI (786-0 renal): > 100 µM
TGI (ACHN renal): > 100 µM
TGI (K-562 leukemia): > 100 µM
TGI (A498 renal): > 100 µM
TGI (CAKI-1 renal): > 100 µM
TGI (KM12 colon): > 100 µM

O=C(O)Cc1cc(=O)[nH]c2c1C(=O)CCC2
TGI (MOLT-4 leukemia): > 100 µM
TGI (786-0 renal): > 100 µM
TGI (ACHN renal): > 100 µM
TGI (K-562 leukemia): > 100 µM
TGI (KM12 colon): > 100 µM

CC1=NN(C(=O)c2cc(Cl)cc([N+](=O)[O-])c2)C(=O)C1N=Nc1ccccc1C(=O)O (stereo not given)
TGI (MOLT-4 leukemia): > 100 µM
TGI (786-0 renal): > 100 µM
TGI (ACHN renal): > 100 µM
TGI (K-562 leukemia): > 100 µM
TGI (A498 renal): > 100 µM
TGI (CAKI-1 renal): > 100 µM
TGI (KM12 colon): > 100 µM

O=C(c1ccccc1)c1ccccc1C(=O)c1ccccc1
GI50 (MOLT-4 leukemia): 32.7 µM
TGI (MOLT-4 leukemia): > 100 µM
GI50 (786-0 renal): 50.6 µM
TGI (786-0 renal): > 100 µM
GI50 (ACHN renal): 45.7 µM
TGI (ACHN renal): > 100 µM
GI50 (T-47D breast): 47.2 µM
TGI (T-47D breast): > 100 µM
GI50 (K-562 leukemia): 41 µM
TGI (K-562 leukemia): > 100 µM
GI50 (MDA-MB-231 breast): 65.5 µM
TGI (MDA-MB-231 breast): > 100 µM
GI50 (A498 renal): 4.34 µM
TGI (A498 renal): > 100 µM
GI50 (CAKI-1 renal): 19.4 µM
TGI (CAKI-1 renal): 70.6 µM
GI50 (KM12 colon): 36.2 µM
TGI (KM12 colon): > 100 µM

CCC1(CC)C(=O)[N-]C(=O)[N-]C1=O.[Au+].[Au+].c1ccc([PH+](c2ccccc2)c2ccccc2)cc1.c1ccc([PH+](c2ccccc2)c2ccccc2)cc1
GI50 (786-0 renal): 0.911 µM
TGI (786-0 renal): 2.14 µM
GI50 (ACHN renal): 1.7 µM
TGI (ACHN renal): 3.07 µM

COC(=O)C1=C(c2cc(OC)c(OC)c(OC)c2)O[C@H](c2ccc3c(c2)OCO3)[C@H]1COC(C)=O
TGI (MOLT-4 leukemia): 74 µM
TGI (786-0 renal): 78.4 µM
TGI (ACHN renal): 92.1 µM
TGI (K-562 leukemia): 91.8 µM
TGI (A498 renal): 48.6 µM
TGI (CAKI-1 renal): > 100 µM
TGI (KM12 colon): > 100 µM

CC(=O)O[C@H](C[C@H](C(C)C)N(C)C(=O)[C@@H](NC(=O)[C@H]1CCCCN1C)C(C)(C)C)c1nc(C(=O)N[C@@H](Cc2ccccc2)C[C@H](C)C(=O)O)cs1
GI50 (MOLT-4 leukemia): < 0.0025 µM
TGI (MOLT-4 leukemia): > 25 µM
GI50 (786-0 renal): < 0.0025 µM
TGI (786-0 renal): > 25 µM
GI50 (ACHN renal): < 0.0025 µM
TGI (ACHN renal): > 25 µM
GI50 (K-562 leukemia): < 0.0025 µM
TGI (K-562 leukemia): > 25 µM
GI50 (MDA-MB-231 breast): < 0.0025 µM
GI50 (HS 578T breast): < 0.0025 µM
TGI (HS 578T breast): > 23.6 µM
GI50 (CAKI-1 renal): < 0.0025 µM
TGI (CAKI-1 renal): > 25 µM
GI50 (KM12 colon): < 0.0025 µM

COc1cc(C(=O)C/C(CCC(=O)Nc2ccc(Cl)cc2Cl)=N/Nc2nnc(C)n2N)ccc1O
TGI (786-0 renal): > 100 µM
TGI (ACHN renal): > 100 µM
TGI (A498 renal): > 100 µM
TGI (CAKI-1 renal): > 100 µM
TGI (KM12 colon): > 100 µM

C=C1C(=O)O[C@H]2[C@H]1CC/C(COC(=O)/C=C/c1c[nH]c3ccccc13)=C\CC[C@@]1(C)O[C@@H]21
GI50 (MOLT-4 leukemia): 0.302 µM
TGI (MOLT-4 leukemia): 1.78 µM
GI50 (786-0 renal): 0.221 µM
TGI (786-0 renal): 0.555 µM
GI50 (ACHN renal): 0.202 µM
TGI (ACHN renal): 0.545 µM
GI50 (T-47D breast): 0.205 µM
TGI (T-47D breast): 0.626 µM
GI50 (K-562 leukemia): 0.273 µM
TGI (K-562 leukemia): > 100 µM
GI50 (MDA-MB-231 breast): 0.177 µM
TGI (MDA-MB-231 breast): 0.374 µM
GI50 (HS 578T breast): 0.353 µM
TGI (HS 578T breast): 2.92 µM
GI50 (A498 renal): 0.278 µM
TGI (A498 renal): 1.13 µM
GI50 (KM12 colon): 0.402 µM
TGI (KM12 colon): 1.64 µM

Cc1ccc(SCC(O)=C2C(=O)CCCC2=O)cc1
TGI (MOLT-4 leukemia): > 100 µM
TGI (786-0 renal): > 100 µM
TGI (ACHN renal): > 100 µM
TGI (K-562 leukemia): > 100 µM
TGI (CAKI-1 renal): > 100 µM
TGI (KM12 colon): > 100 µM
